Test results from patent publication US20260198495A1, “BINARY INSECTICIDE COMPOSITION AND USE THEREOF” (SHENYANG SINOCHEM AGROCHEMICALS R & D CO., LTD., priority 2022, published 2026).

How the values were obtained:
Format in all cases: in vivo
[1] = tested on: 2nd-instar larvae of Chilo suppressalis (Walker); assay: Joint toxicity of I-72 + carbaryl, rice stalk spraying, Example 23, Table 23
From the text: In addition, a blank control was set up.
The treated test materials were placed in an observation room, and the temperature, humidity and illumination of the observation room could be adjusted as needed.

[2] = tested on: 3rd-instar larvae of Yponomeuta evonymallus (Linnaeus); assay: Synergism screening (Bliss) of I-72 + pyrethroid insecticides, Example 37, Table 37; conditions: single pesticide, leaf dipping, 72 hours
Method: Test target: 3rd-instar larvae of Yponomeuta evonymallus (Linnaeus).
(§1) Preparation of the pesticide solution: according to different test requirements, the test samples were accurately weighed respectively with an electronic analytical balance. The technical pesticides were dissolved in acetone, and then diluted with 0.1% Tween 80 water into a series of pesticide solutions with a certain concentration gradient according to the experimental design dosage.
(§2) Experimental method: Firstly, Hylotelephium spectabile leaves were selected and dipped into the prepared pesticide solutions for 10 s in the order from low dosage to high dosage according to the experimental design. After natural air-drying in the shade, they were placed in a 9-cm-diameter Petri dish with filter paper, and uniform and healthy test insects were introduced, with 10 insects for each treatment and 3 replicates for each treatment. In addition, a blank control (CK) was set up.
(§3) The treated test materials were placed in an observation room, and the temperature, humidity and illumination of the observation room could be adjusted as needed. The number of dead and alive insects was investigated 72 hours later, and the corrected mortality rate was calculated using the Abbott's formula.
The synergism of the mixture was evaluated by the Bliss method. According to the concept of independent joint action he proposed, Bliss believes that the theoretical mortality rate P when insecticides are used in combination can be calculated by the following formula: […]
Pm is the measured mortality rate (%) of the target when the first active ingredient is at a concentration of m; and Pn is the measured mortality rate (%) of the target when the second active ingredient is used at a concentration of n.
If the actual mortality rate of the target after the two active ingredients are mixed at a certain concentration is greater than theoretical mortality rate P, it is determined that the two active ingredients have a synergistic effect when used in combination at the set concentration, and otherwise, they have an antagonistic effect.

[3] = tested on: 2nd-instar larvae of Plutella xylostella; assay: Synergism screening (Bliss) of I-72 + insect attractants and insecticides, Example 49, Table 49; conditions: Plutella xylostella; single pesticide, 0.1 mg/L; 72 hours; read-out: Measured mortality rate
Method: Test target: 2nd-instar larvae of Plutella xylostella.
as §1
as §2, with “first, cabbage” for “Firstly, Hylotelephium spectabile”, “in” for “into”, “solution” for “solutions”, “CK” for “(CK)”
as §3
(§4) The synergism of the mixture was evaluated by adopting the Bliss method, as in Example 5.

Cnaphalocrocis medinalis = assay: Field efficacy trial of I-72 and Bacillus thuringiensis on rice, Example 86, Table 86; conditions: 20 days after application
Method: This trial was arranged in the suburban area of Jurong City, Jiangsu Province. The conventional spraying method was adopted in the trial. The investigation method was to take samples at 5 points, and a total of 25 clusters of rice were investigated. The investigation was performed 20 days after the pesticide application. By comparing with the leaf rolling rate in the control plot, the relative control efficacy was calculated. The amount of water used per mu was 45 L.
The test pesticides were as follows: A: 8000 IU/μL Bacillus thuringiensis suspension (produced by Qingdao Audis Biotechnology Co., Ltd. of Shandong), and B: compound I-72 (dissolved in acetone, 0.1% Tween 80 was added, and a 10% stock solution was prepared for use).
[formula] [formula] • in the formula, CK is the leaf rolling rate in the blank control plot after the pesticide application

[4] = tested on: Bemisia tabaci (Gennadius) nymphs; assay: Joint toxicity of I-72 + organophosphorus insecticides, cotton leaf-disk spraying, Example 18, Table 18; conditions: nymphs, cotton leaf-disk spraying, 96 h, A = compound I-72, B = acephate, read-out: LC50
Method: Test target: Bemisia tabaci (Gennadius) nymphs.
as §1
(§5) Experimental method: first, cotton leaves with neat and consistent Bemisia tabaci (Gennadius) nymphs were selected and made into leaf disks, with about 20 insects on each leaf disk. Then, they were evenly sprayed with the pesticide solution in the order from low dosage to high dosage according to the experimental design, with 1.5 mL for each leaf and 3 replicates for each treatment. In addition, a blank control was set up.
The treated test materials were placed in an observation room, and the temperature, humidity and illumination of the observation room could be adjusted as needed. The number of dead and live insects was investigated 96 hours later. The corrected mortality rate was calculated using the Abbott's formula, and statistical analysis was performed with the DPS data processing software to obtain the toxicity regression equation, LC50 value and 95% confidence limit of each single test pesticide and each mixture of different ratios. Then, the co-toxicity coefficient of each ratio was calculated using the Sun Y-P method to evaluate the mixing effect (the same as in Example 1).

[5] = tested on: adult Phyllotreta vittuta Fabr.; assay: Joint toxicity of I-72 + acetamiprid, Example 65, Table 65; conditions: A = compound I-72, B = acetamiprid; potted cabbage seedling spraying; 72 hours; read-out: LC50
Method: Test target: adult Phyllotreta vittuta Fabr.
as §1
Experimental method: first, uniform and consistent potted cabbage seedlings were selected. Then, uniform spraying was performed with the pesticide solution in the order from low dosage to high dosage according to the experimental design. After air-drying in the shade, adult flea beetles were transferred onto the treated cabbage seedlings, and then glass covers were put on them, with about 30-40 adult flea beetles on each seedling and 3 replicates for each treatment. In addition, a blank control was set up.
The treated test materials were placed in an observation room, and the temperature, humidity and illumination of the observation room could be adjusted as needed. The number of dead and live insects was investigated 72 hours later.

[6] = tested on: Bemisia tabaci (Gennadius) nymphs; assay: Joint toxicity of I-72 + bifenthrin, Example 40, Table 40; conditions: A = compound I-72, B = bifenthrin, cotton leaf-disk spraying, 96 hours, read-out: LC50
Method: Test target: Bemisia tabaci (Gennadius) nymphs, a sensitive strain reared indoors.
as §1, §5
The treated test materials were placed in an observation room, and the temperature, humidity and illumination of the observation room could be adjusted as needed. The number of dead and live insects was investigated 96 hours later. […] Then, the co-toxicity coefficient of each ratio was calculated using the Sun Y-P method to evaluate the mixing effect (the same as in Example 1).

[7] = tested on: 3rd-instar larvae of Ostrinia furnacalis Guenee; assay: Synergism screening (Bliss) of I-72 + ecdysteroid and juvenile hormone insecticides, Example 51, Table 51; conditions: Ostrinia furnacalis; single pesticide, 2 mg/L; 72 hours; read-out: Measured mortality rate
Method: Test target: 3rd-instar larvae of Ostrinia furnacalis Guenee.
as §1
as §2, with “first, tender corn stems” for “Firstly, Hylotelephium spectabile leaves”, “in” for “into”, “solution” for “solutions”
as §3, §4

Structure (SMILES): CN(C(=O)c1ccc2c(c1)OC(F)(F)O2)c1cccc(C(=O)Nc2c(Br)cc(C(F)(C(F)(F)F)C(F)(F)F)cc2OC(F)F)c1F [Compound I-72]
- LC50 [1]: 0.881 µg/mL
- Measured mortality rate (%) ([2]; concentration 0.1 mg/L): 11.1%
- Measured mortality rate (%) ([2]; concentration 5 mg/L): 57.1%
- mortality at 0.1 µg/mL [3]: 46.9%
- Control efficacy (Cnaphalocrocis medinalis; dose 9 ml per mu): 79.6%
- Leaf rolling rate (Cnaphalocrocis medinalis; dose 9 ml per mu): 8.6%
- Control efficacy (Cnaphalocrocis medinalis; dose 11.25 ml per mu): 85.0%
- Leaf rolling rate (Cnaphalocrocis medinalis; dose 11.25 ml per mu): 6.3%
- Control efficacy (Cnaphalocrocis medinalis; dose 13.5 ml per mu): 86.8%
- Leaf rolling rate (Cnaphalocrocis medinalis; dose 13.5 ml per mu): 5.6%
- LC50 [4]: 5.05 µg/mL
- LC50 [5]: 1.14 µg/mL
- LC50 [6]: 10.9 µg/mL
- mortality at 2 µg/mL [7]: 75.9%
